Results published in US8124624B2, “Substituted sulfonamide compounds” (Gruenenthal GmbH, priority 2008, dated 2012).

What follows are compounds tested against T1, B1R of the rat (Rattus norvegicus, UniProt P97583) (assay: FLIPR Ca2+ influx assay, B1R antagonism, rat (rB1R CHO K1 cells)). Conditions: test substance 10 μM; CHO K1 cells stably transfected with rat B1R; agonist Des-Arg9-bradykinin at EC80; % inhibition compared with maximum achievable inhibition.
T1 construct: expressed in transfected cells; host or cells: CHO K1 cells (rB1R cells)
T1 sequence (P97583 1-337): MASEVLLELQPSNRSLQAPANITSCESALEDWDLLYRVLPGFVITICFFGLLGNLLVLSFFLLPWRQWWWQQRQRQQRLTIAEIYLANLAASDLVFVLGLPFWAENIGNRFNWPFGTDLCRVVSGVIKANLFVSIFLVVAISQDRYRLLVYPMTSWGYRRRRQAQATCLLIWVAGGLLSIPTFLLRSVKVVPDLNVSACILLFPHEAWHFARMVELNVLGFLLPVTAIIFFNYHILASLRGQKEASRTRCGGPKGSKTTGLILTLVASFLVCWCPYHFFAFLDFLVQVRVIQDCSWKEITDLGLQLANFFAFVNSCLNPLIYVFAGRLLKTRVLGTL
Format: cell-based
Method: The agonistic or antagonistic action of substances can be quantified on the bradykinin receptor 1 (B1R) of the species human and rat using ectopically expressing cell lines (CHO K1 cells) and with the aid of a Ca^2+-sensitive dye (Fluo-4) using a fluorescent imaging plate reader (FLIPR). The indication in % activation is based on the Ca^2+ signal after addition of Lys-Des-Arg^9-bradykinin (0.5 nM) or Des-Arg^9-bradykinin (100 nM). Antagonists lead to suppression of the Ca^2+ influx after the addition of the agonist. % Inhibition compared with the maximum achievable inhibition is indicated.
The agonistic or antagonistic action of substances can be determined on the bradykinin receptor 1 (B1R) of the species human and rat using the following assay. According to this assay, the Ca^2+ influx through the channel is quantified with the aid of a Ca^2+-sensitive dye (Fluo-4 type, Molecular Probes Europe BV, Leiden, Netherlands) using a Fluorescent Imaging Plate Reader (FLIPR, Molecular Devices, Sunnyvale, USA).
Chinese hamster ovary cells (CHO K1 cells) which have been stably transfected with the human B1R gene (hB1R cells) or with the B1R gene of the rat (rB1R cells) are used. For functional studies, the cells are plated out on black 96-well plates having a clear base (BD Biosciences, Heidelberg, Germany or Greiner, Frickenhausen, Germany) in a density of 20,000-35,000 cells/well. The cells are incubated overnight at 37° C. and with 5% CO2 in culture medium (hB1R cells: Nutrient Mixture Ham's F12, Gibco Invitrogen GmbH, Karlsruhe, Germany or DMEM, Sigma-Aldrich, Taufkirchen, Germany; rB1R cells: D-MEM/F12, Gibco Invitrogen GmbH, Karlsruhe, Germany), with 10 vol. % FBS (fetal bovine serum, Gibco Invitrogen GmbH, Karlsruhe, Germany or PAN Biotech GmbH, Aidenbach, Germany).
On the following day, the cells are loaded for 60 minutes at 37° C. with 2.13 μM Fluo-4 (Molecular Probes Europe BV, Leiden, Netherlands) in HBSS buffer (Hank's buffered saline solution, Gibco Invitrogen GmbH, Karlsruhe, Germany) […] (Sigma-Aldrich, Taufkirchen, Germany) and 10 mM HEPES (Sigma-Aldrich, Taufkirchen, Germany). The plates are then washed twice with HBSS buffer, and HBSS buffer additionally containing 0.1% BSA (bovine serum albumin; Sigma-Aldrich, Taufkirchen, Germany), 5.6 mM glucose and 0.05% gelatin (Merck KGaA, Darmstadt, Germany) is added to the plates. After incubation for a further 20 minutes at room temperature, the plates are inserted into the FLIPR for Ca^2+ measurement.
Alternatively, washing is carried out with buffer A (15 mM HEPES, 80 mM NaCl, 5 mM KCl, 1.2 mM CaCl2, 0.7 mM MgSO4, 2 g/l glucose, 2.5 mM probenecid) followed by loading with buffer A with added 2.5 μM Fluo-4 and 0.025% Pluronic F127 (Sigma-Aldrich, Taufkirchen, Germany). The cells are then washed twice with buffer A and incubated for 30 minutes at room temperature with buffer A additionally containing 0.05% BSA and 0.05% gelatin and are then inserted into the FLIPR for Ca^2+ measurement.
The Ca^2+-dependent fluorescence is measured before and after the addition of substances (λex=488 nm, λem=540 nm). Quantification is carried out by measuring the highest fluorescence intensity (FC, fluorescence counts) over time.
The FLIPR protocol consists of two substance additions. Test substances (10 μM) are first pipetted onto the cells and the Ca^2+ influx is compared with the control (hB1R: Lys-Des-Arg^9-bradykinin >=50 nM; rB1R: Des-Arg^9-bradykinin 10 μM). This gives the activation in %, based on the Ca^2+ signal after addition of Lys-Des-Arg^9-bradykinin (>=50 nM) or Des-Arg^9-bradykinin (10 μM). After 10-20 minutes' incubation, Lys-Des-Arg^9-bradykinin (hB1R) or Des-Arg^9-bradykinin (rB1R) is applied in the concentration of the EC80, and the influx of Ca^2+ is likewise determined. Antagonists lead to suppression of the Ca^2+ influx. The % inhibition compared with the maximum achievable inhibition is calculated. […]

B1R antagonism, rat [10 μM] % inhibition	Structure (SMILES)
100%	COc1cc(C)c(S(=O)(=O)N(CCOCC(=O)N2CCC(CCCN3CCCC3)(c3ccncc3)CC2)Cc2ccccc2)c(C)c1 [Example 40, N-Benzyl-4-Methoxy-2,6-dimethyl-N-[2-[2-oxo-2-[4-pyridin-4-yl-4-(3-pyrrolidin-1-yl-propyl)-piperidin-1-yl]-ethoxy]-ethyl]-benzenesulfonic acid amide]
100%	O=C(COCC1CCCCN1S(=O)(=O)c1ccccc1C(F)(F)F)N1CCC(CCCN2CCCC2)(c2ccncc2)CC1 (centres unmarked) [Example 44, 1-[4-Pyridin-4-yl-4-(3-pyrrolidin-1-yl-propyl)-piperidin-1-yl]-2-[[1-[[2-(trifluoromethyl)-phenyl]sulfonyl]-piperidin-2-yl]-methoxy]-ethanone]
101%	COc1cc(C)c(S(=O)(=O)N2CCCCC2CCOCC(=O)N2CCC(CCCN3CCCC3)(c3cccnc3)CC2)c(C)c1 (centres unmarked) [Example 46, 2-[2-[1-[(4-Methoxy-2,6-dimethyl-phenyl)sulfonyl]-piperidin-2-yl]-ethoxy]-1-[4-pyridin-3-yl-4-(3-pyrrolidin-1-yl-propyl)-piperidin-1-yl]-ethanone]
83%	O=C(COCC1CCc2ccccc2N1S(=O)(=O)c1ccc2ccccc2c1)N1CCC(CCCN2CCCC2)(c2cccnc2)CC1 (centres unmarked) [Example 52, 2-[[1-(Naphthalen-2-ylsulfonyl)-1,2,3,4-tetrahydro-quinolin-2-yl]-methoxy]-1-[4-pyridin-3-yl-4-(3-pyrrolidin-1-yl-propyl)-piperidin-1-yl]-ethanone]

Same assay, conditions: test substance 10 μM; CHO K1 cells stably transfected with rat B1R; agonist Des-Arg9-bradykinin at EC80; % inhibition compared with maximum achievable inhibition; read-out: B1R antagonism, rat [10 μM] % inhibition

Structure (SMILES)	inhibition at 10 µM
COc1cc(C)c(S(=O)(=O)N(C)CCOCC(=O)N2CCC(CCCN3CCCC3)(c3ccncc3)CC2)c(C)c1C [Example 32, 4-Methoxy-N,2,3,6-tetramethyl-N-[2-[2-oxo-2-[4-pyridin-4-yl-4-(3-pyrrolidin-1-yl-propyl)-piperidin-1-yl]-ethoxy]-ethyl]-benzenesulfonic acid amide]	100%
O=C(COCC1CCCCN1S(=O)(=O)c1ccccc1C(F)(F)F)N1CCC(CCCN2CCCC2)(c2ccncc2)CC1 (centres unmarked) [Example 43, 1-[4-Pyridin-4-yl-4-(3-pyrrolidin-1-yl-propyl)-piperidin-1-yl]-2-[[1-[[2-(trifluoromethyl)-phenyl]sulfonyl]-piperidin-2-yl]-methoxy]-ethanone]	101%
COc1cc(C)c(S(=O)(=O)N2CCCCC2CCOCC(=O)N2CCC(CCCN3CCCC3)(c3cccnc3)CC2)c(C)c1 (centres unmarked) [Example 45, 2-[2-[1-[(4-Methoxy-2,6-dimethyl-phenyl)sulfonyl]-piperidin-2-yl]-ethoxy]-1-[4-pyridin-3-yl-4-(3-pyrrolidin-1-yl-propyl)-piperidin-1-yl]-ethanone]	100%
CN(CCCC(=O)N1CCC(CCCN2CCCC2)(c2cccnc2)CC1)S(=O)(=O)c1cccc(C(F)(F)F)c1 [Example 47, N-Methyl-N-[4-Oxo-4-[4-pyridin-3-yl-4-(3-pyrrolidin-1-yl-propyl)-piperidin-1-yl]-butyl]-3-(trifluoromethyl)-benzenesulfonic acid amide]	53%
Cc1cccc(Cl)c1S(=O)(=O)N1CCCCC1CCCC(=O)N1CCC(CCCN2CCCC2)(c2ccncc2)CC1 (centres unmarked) [Example 56, 4-[1-[(2-Chloro-6-methyl-phenyl)sulfonyl]-piperidin-2-yl]-1-[4-pyridin-4-yl-4-(3-pyrrolidin-1-yl-propyl)-piperidin-1-yl]-butan-1-one]	97%
O=C(CCCC1CCCCN1S(=O)(=O)c1ccccc1C(F)(F)F)N1CCC(CCCN2CCCC2)(c2cccnc2)CC1 (centres unmarked) [Example 57, 1-[4-Pyridin-3-yl-4-(3-pyrrolidin-1-yl-propyl)-piperidin-1-yl]-4-[1-[[2-(trifluoromethyl)-phenyl]sulfonyl]-piperidin-2-yl]-butan-1-one]	70%
O=C(CCCC1CCCCN1S(=O)(=O)c1ccccc1C(F)(F)F)N1CCC(CCCN2CCCC2)(c2ccncc2)CC1 (centres unmarked) [Example 58, 1-[4-Pyridin-4-yl-4-(3-pyrrolidin-1-yl-propyl)-piperidin-1-yl]-4-[1-[[2-(trifluoromethyl)-phenyl]sulfonyl]-piperidin-2-yl]-butan-1-one]	99%

The remaining lines, values ahead:

inhibition at 10 µM	Structure (SMILES)
97%	COc1cc(C)c(S(=O)(=O)N2CCCCC2COCC(=O)N2CCC(CCCN3CCCC3)(c3ccncc3)CC2)c(C)c1 (centres unmarked) [Example 28, 2-[[1-[(4-Methoxy-2,6-dimethyl-phenyl)sulfonyl]-piperidin-2-yl]-methoxy]-1-[4-pyridin-4-yl-4-(3-pyrrolidin-1-yl-propyl)-piperidin-1-yl]-ethanone]
100%	COc1cc(C)c(S(=O)(=O)N(C)CCOCC(=O)N2CCC(CCCN3CCCC3)(c3ccncc3)CC2)c(C)c1 [Example 30, 4-Methoxy-N,2,6-trimethyl-N-[2-[2-oxo-2-[4-pyridin-4-yl-4-(3-pyrrolidin-1-yl-propyl)-piperidin-1-yl]-ethoxy]-ethyl]-benzenesulfonic acid amide]
99%	COc1cc(C)c(S(=O)(=O)N(CCOCC(=O)N2CCC(CCCN3CCCC3)(c3ccncc3)CC2)Cc2ccccc2)c(C)c1 [Example 39, N-Benzyl-4-Methoxy-2,6-dimethyl-N-[2-[2-oxo-2-[4-pyridin-4-yl-4-(3-pyrrolidin-1-yl-propyl)-piperidin-1-yl]-ethoxy]-ethyl]-benzenesulfonic acid amide]
100%	COc1cc(C)c(S(=O)(=O)N(CCOCC(=O)N2CCC(CCCN3CCCC3)(c3ccncc3)CC2)c2ccccc2)c(C)c1 [Example 50, 4-Methoxy-2,6-Dimethyl-N-[2-[2-oxo-2-[4-pyridin-4-yl-4-(3-pyrrolidin-1-yl-propyl)-piperidin-1-yl]-ethoxy]-ethyl]-N-phenyl-benzenesulfonic acid amide]
80%	O=C(COCC1CCc2ccccc2N1S(=O)(=O)c1ccc2ccccc2c1)N1CCC(CCCN2CCCC2)(c2cccnc2)CC1 (centres unmarked) [Example 51, 2-[[1-(Naphthalen-2-ylsulfonyl)-1,2,3,4-tetrahydro-quinolin-2-yl]-methoxy]-1-[4-pyridin-3-yl-4-(3-pyrrolidin-1-yl-propyl)-piperidin-1-yl]-ethanone]
98%	COc1cc(C)c(S(=O)(=O)N2c3ccccc3CCC2COCC(=O)N2CCC(CCCN3CCCC3)(c3ccncc3)CC2)c(C)c1 (centres unmarked) [Example 55, 2-[[1-[(4-Methoxy-2,6-dimethyl-phenyl)sulfonyl]-1,2,3,4-tetrahydro-quinolin-2-yl]-methoxy]-1-[4-pyridin-4-yl-4-(3-pyrrolidin-1-yl-propyl)-piperidin-1-yl]-ethanone]
